“And” between values parts separate entries of the source, which are not always exact repeats. Equal values may be shown once.
Experiments:
OTUB2 = molecular target: T1, OTUB2 (Homo sapiens, UniProt Q96DC9); assay: biochemical
T1 sequence (Q96DC9 1-234): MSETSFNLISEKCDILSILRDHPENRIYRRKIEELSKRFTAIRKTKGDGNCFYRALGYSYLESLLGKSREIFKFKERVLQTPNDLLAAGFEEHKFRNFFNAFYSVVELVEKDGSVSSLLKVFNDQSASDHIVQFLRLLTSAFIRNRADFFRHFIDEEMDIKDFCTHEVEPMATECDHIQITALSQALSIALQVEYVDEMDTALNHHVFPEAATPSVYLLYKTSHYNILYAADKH

USP30 = molecular target: T2, USP30 (Homo sapiens, UniProt Q70CQ3); assay: biochemical
T2 sequence (Q70CQ3 1-517): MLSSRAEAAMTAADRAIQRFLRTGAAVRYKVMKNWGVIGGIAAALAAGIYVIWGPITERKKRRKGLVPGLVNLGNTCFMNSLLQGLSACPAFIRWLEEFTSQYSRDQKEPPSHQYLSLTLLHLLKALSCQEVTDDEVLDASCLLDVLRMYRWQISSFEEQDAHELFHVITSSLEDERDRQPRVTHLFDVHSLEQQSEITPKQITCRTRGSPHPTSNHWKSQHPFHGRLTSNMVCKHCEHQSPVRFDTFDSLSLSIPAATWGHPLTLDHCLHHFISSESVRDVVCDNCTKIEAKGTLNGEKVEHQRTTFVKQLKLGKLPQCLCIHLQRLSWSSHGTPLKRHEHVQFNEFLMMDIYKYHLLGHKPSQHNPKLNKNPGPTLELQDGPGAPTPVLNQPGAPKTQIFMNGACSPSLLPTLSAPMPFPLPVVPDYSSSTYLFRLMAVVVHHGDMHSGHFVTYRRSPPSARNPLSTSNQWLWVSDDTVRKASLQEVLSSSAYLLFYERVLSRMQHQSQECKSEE

Cezanne1 = molecular target: T3, Cezanne1 (Homo sapiens, UniProt Q6GQQ9); assay: Biochemical DUB selectivity profiling assay: Cezanne1; conditions: Ub-Lys-TAMRA 50 nM, buffer B; read-out: Biochemical IC50 range, Cezanne1
T3 sequence (Q6GQQ9 1-843): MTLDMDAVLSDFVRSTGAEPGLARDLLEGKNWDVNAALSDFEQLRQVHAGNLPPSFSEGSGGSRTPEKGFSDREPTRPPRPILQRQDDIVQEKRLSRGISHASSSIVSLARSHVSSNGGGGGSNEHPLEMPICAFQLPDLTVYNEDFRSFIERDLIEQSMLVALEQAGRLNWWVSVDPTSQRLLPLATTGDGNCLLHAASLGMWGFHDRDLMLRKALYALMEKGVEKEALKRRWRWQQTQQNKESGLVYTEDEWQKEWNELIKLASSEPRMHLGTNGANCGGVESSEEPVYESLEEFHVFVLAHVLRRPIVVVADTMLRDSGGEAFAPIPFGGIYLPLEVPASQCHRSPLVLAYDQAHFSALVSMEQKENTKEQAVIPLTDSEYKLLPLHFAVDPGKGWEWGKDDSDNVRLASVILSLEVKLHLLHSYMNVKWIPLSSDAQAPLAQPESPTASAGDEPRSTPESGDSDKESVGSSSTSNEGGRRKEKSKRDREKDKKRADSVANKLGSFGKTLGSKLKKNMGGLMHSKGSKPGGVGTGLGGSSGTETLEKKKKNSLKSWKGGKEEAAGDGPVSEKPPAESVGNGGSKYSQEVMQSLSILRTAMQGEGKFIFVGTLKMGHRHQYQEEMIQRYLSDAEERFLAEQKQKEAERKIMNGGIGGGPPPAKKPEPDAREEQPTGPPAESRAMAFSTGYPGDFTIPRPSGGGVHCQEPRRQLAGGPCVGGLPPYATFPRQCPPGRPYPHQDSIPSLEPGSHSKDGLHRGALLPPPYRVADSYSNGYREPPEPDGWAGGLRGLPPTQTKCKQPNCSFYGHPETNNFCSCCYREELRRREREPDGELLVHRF
Description: DUB Assay Substrate Substrate
Buffer Concentration (nM) […]
Sepharose® 4B resin (GE Healthcare).
10 kDa molecular weight cut-off (MWCO)).
Fractions containing protein
Protein concentration was […]
reaction volume of 21 μL. […]
compound (final concentration 5 nM).
IC50 values were determined
Biochemical DUB selectivity profiling assays […]
in 40 µL total reaction volume.

[1] = test system: primary human bronchial fibroblasts from IPF patients (TGF-β1-triggered αSMA); assay: Fibroblast-to-myofibroblast transition (FMT) assay, αSMA by high content analysis; conditions: for IC50: Homo sapiens, Fibroblast, 72 h, read-out: αSMA inhibition IC50 (95% CI); for αSMA inhibition / transdifferentiation (in words): IPF donor fibroblasts, TGF-β1, 3 days, high content imaging
UCHL3 = molecular target: T4, UCHL3 (Homo sapiens, UniProt P15374); assay: In-cell proteome-wide competitive ABPP, HEK293: UCHL3; conditions: for Log2 reporter intensity values: UCHL3: DMSO substract (FC); for Log2 reporter intensity values: UCHL3 / Log2 reporter intensity values: replicates A-C; for Log2 reporter intensity values: UCHL3, DMSO subtracted
T4 sequence (P15374 1-230): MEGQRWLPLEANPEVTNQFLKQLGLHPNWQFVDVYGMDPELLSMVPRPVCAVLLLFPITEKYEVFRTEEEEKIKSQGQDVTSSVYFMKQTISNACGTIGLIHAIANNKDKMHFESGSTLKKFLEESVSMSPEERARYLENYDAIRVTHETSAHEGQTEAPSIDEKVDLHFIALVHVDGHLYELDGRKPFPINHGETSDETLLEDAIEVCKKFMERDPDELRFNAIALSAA

UCHL1 = molecular target: T5, UCHL1 (Homo sapiens, UniProt P09936); assay: In-cell proteome-wide competitive ABPP (quantitative chemical proteomics), HEK293: UCHL1; conditions: for Log2 reporter intensity values: UCHL1: DMSO substract (FC); for Log2 reporter intensity values: UCHL1 / Log2 reporter intensity values: replicates A-C; for UCHL1 response in proteome-wide competitive ABPP: HEK293, compound 60 min, then 2 (20 nM) 10 min; for Log2 reporter intensity values: UCHL1, DMSO subtracted
T5 sequence (P09936 1-223): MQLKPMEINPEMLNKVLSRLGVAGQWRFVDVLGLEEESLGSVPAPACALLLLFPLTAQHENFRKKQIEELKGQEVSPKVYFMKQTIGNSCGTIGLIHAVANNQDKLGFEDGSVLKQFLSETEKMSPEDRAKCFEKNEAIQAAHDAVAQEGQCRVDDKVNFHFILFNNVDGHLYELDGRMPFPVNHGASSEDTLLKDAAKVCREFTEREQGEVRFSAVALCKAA

FLAG-UCHL1 = molecular target: T6, FLAG-UCHL1 (Homo sapiens, UniProt P09936); assay: HTRF in-cell UCHL1 activity assay with HA-Ub-VME in Cal51 cells; format: cell-based; conditions: Cal51 cells stably expressing FLAG-UCHL1, 1 h, HA-Ub-VME 100 nM
T6 construct: expressed in transfected cells
T6 sequence (P09936 1-223): T5 sequence (P09936 1-223)

[2] = 3 at 1 μM, competition with ABP 2
[3] = 3 at 4 μM, competition with ABP 2
[4] = 1 at 1 μM, competition with ABP 2
[5] = 1 at 4 μM, competition with ABP 2

Structure (SMILES): CC(=O)O/N=C1\C(=O)N(Cc2cc(Cl)ccc2Cl)c2ccc(Cl)cc21 [LDN-57444, reference compound]
- IC50 (OTUB2): > 10 µM
- IC50 (USP30): > 10 µM
- IC50 (Cezanne1): > 10 µM
- IC50 [1]: 3.7 µM
- αSMA inhibition / transdifferentiation (in words) [1]: not and weak αSMA inhibition

Structure (SMILES): N#CN1CCC[C@@H]1C(=O)N1CCc2c(-c3c[nH]c4ncccc34)cccc21 [Compound 3]
- Log2 reporter intensity values: UCHL3 (UCHL3; [2]): 1.501 and 1.531 and 1.889
- Log2 reporter intensity values: UCHL3 (UCHL3; [3]): 1.509 and 1.358 and 1.681
- Log2 reporter intensity values (UCHL3; 3_1 μM): 0.4924 and 0.5226 and 0.8806
- Log2 reporter intensity values (UCHL3; 3_4 μM): 0.5004 and 0.3501 and 0.6732
- Log2 reporter intensity values (UCHL3; 3 at 1 μM): 0.5856 and 0.6143 and 0.9175
- Log2 reporter intensity values (UCHL3; 3 at 4 μM): 0.5932 and 0.4418 and 0.7497
- Log2 reporter intensity values: UCHL1 (UCHL1; [2]): 5.152 and 5.416 and 5.469
- Log2 reporter intensity values: UCHL1 (UCHL1; [3]): 5.424 and 5.76 and 5.633
- UCHL1 response in proteome-wide competitive ABPP (UCHL1): does not respond
- Log2 reporter intensity values (UCHL1; 3_1 μM): 4.152 and 4.416 and 4.468
- Log2 reporter intensity values (UCHL1; 3_4 μM): 4.423 and 4.76 and 4.632
- Log2 reporter intensity values (UCHL1; 3 at 1 μM): 2.365 and 2.437 and 2.451
- Log2 reporter intensity values (UCHL1; 3 at 4 μM): 2.439 and 2.526 and 2.494
- IC50 (OTUB2): > 10 µM
- IC50 (USP30): > 10 µM
- IC50 (Cezanne1): > 10 µM
- IC50 [1]: 2 µM
- αSMA inhibition / transdifferentiation (in words) [1]: not and minimal αSMA inhibition
- IC50 (FLAG-UCHL1): 23 µM

Structure (SMILES): CC(=O)O/N=C1\C(=O)N(Cc2cc(Cl)ccc2Cl)c2ccc(Cl)cc21 [LDN]
- Log2 reporter intensity values: UCHL3 (UCHL3; LDN at 5 μM, competition with ABP 2): 1.511 and 1.383 and 1.619
- Log2 reporter intensity values: UCHL3 (UCHL3; LDN at 25 μM, competition with ABP 2): 1.505 and 1.419 and 1.696
- Log2 reporter intensity values (UCHL3; LDN at 5 μM): 0.5958 and 0.4677 and 0.6949
- Log2 reporter intensity values (UCHL3; LDN at 25 μM): 0.5899 and 0.5052 and 0.7625
- Log2 reporter intensity values (UCHL3; LDN_5 μM): 0.5031 and 0.3746 and 0.6105
- Log2 reporter intensity values (UCHL3; LDN_25 μM): 0.4969 and 0.4111 and 0.6882

Structure (SMILES): N#CN1CCC[C@H]1C(=O)N1CCc2c(-c3c[nH]c4ncccc34)cccc21 [Compound 1]
- Log2 reporter intensity values: UCHL3 (UCHL3; [4]): 0.8904 and 1.311 and 0.2787
- Log2 reporter intensity values: UCHL3 (UCHL3; [5]): 0.7742 and 0.7243 and 0.9234
- UCHL3 response in proteome-wide competitive ABPP (UCHL3; HEK293, compound 60 min, then 2 (20 nM) 10 min): small response
- Log2 reporter intensity values (UCHL3; 1_1 μM): -0.1178 and 0.3024 and -0.7296
- Log2 reporter intensity values (UCHL3; 1_4 μM): -0.234 and -0.284 and -0.08483
- Log2 reporter intensity values (UCHL3; 1 at 1 μM): -0.1675 and 0.3902 and -1.8434
- Log2 reporter intensity values (UCHL3; 1 at 4 μM): -0.3692 and -0.4654 and -0.115
- Log2 reporter intensity values: UCHL1 (UCHL1; [4]): 1.266 and 1.307 and 1.157
- Log2 reporter intensity values: UCHL1 (UCHL1; [5]): 0.9345 and 0.8874 and 0.9379
- UCHL1 response in proteome-wide competitive ABPP (UCHL1): responds strongly
- Log2 reporter intensity values (UCHL1; 1_1 μM): 0.2661 and 0.3067 and 0.157
- Log2 reporter intensity values (UCHL1; 1_4 μM): -0.06576 and -0.1128 and -0.06231
- Log2 reporter intensity values (UCHL1; 1 at 1 μM): 0.3407 and 0.3862 and 0.2107
- Log2 reporter intensity values (UCHL1; 1 at 4 μM): -0.09779 and -0.1723 and -0.09247
- IC50 (OTUB2): > 10 µM
- IC50 (USP30): 1 to 10 µM
- IC50 (Cezanne1): > 10 µM
- αSMA inhibition / transdifferentiation (in words) [1]: inhibit transdifferentiation
- IC50 (FLAG-UCHL1): 0.82 µM

Structure (SMILES): C#Cc1cnc2[nH]cc(-c3cccc4c3CCN4C(=O)[C@@H]3CCCN3C#N)c2c1 [Compound 2]
- Log2 reporter intensity values: UCHL3 (UCHL3; 20 nM ABP 2 alone): 2.007 and 1.656 and 1.566
- Log2 reporter intensity values (UCHL3; 20 nM ABP 2): 1.005 and 0.7277 and 0.6472 and 0.9988 and 0.6478 and 0.5579
- Log2 reporter intensity values: UCHL1 (UCHL1; 20 nM ABP 2 alone): 6.229 and 5.741 and 6.184
- Log2 reporter intensity values (UCHL1; 20 nM ABP 2): 2.639 and 2.521 and 2.629 and 5.2291 and 4.741 and 5.184
- IC50 (Cezanne1): > 10 µM
- αSMA inhibition / transdifferentiation (in words) [1]: inhibit transdifferentiation
- IC50 (FLAG-UCHL1): 0.11 µM

From paper PMC7366380, “Discovery of a Potent and Selective Covalent Inhibitor and Activity-Based Probe for the Deubiquitylating Enzyme UCHL1, with Antifibrotic Activity” (Journal of the American Chemical Society, 2020)
